# Assay results published in patent US6218438A, “Copolymer compositions for treating viral infections” (Supratek Pharma, Inc., priority 1999, dated 2001).
# Test: Solubility of Fe(III)BBNH in water and organic solvents
# Type: physicochemical
# Settings: room temperature, 180 min
# Description: One mg of Fe(III)BBNH was dissolved in 1 ml of dimethyl sulfoxide (DMSO). Aliquots of the solution were further diluted with DMSO to achieve the following final concentrations: […]. Each concentration point of was prepared in triplicates. The aliquots […] of the samples were transferred in 96-well plate. The optical densities (OD) at […] of all the samples were measured by using Microplate Reader.
# The samples of Fe(III)BBNH (1 mg each) were placed in 1 ml of the following solvents:
# The samples were intensively agitated during three hours at room temperature using a rotator. After that the samples were centrifuged at 10,000 g for 10 minutes. The supernatants (500 μl each) were separated and then were dried by using a speed-vac centrifuge. Each sample was then dissolved in 500 μl DMSO and aliquots (50 μl each) were transferred to 96-well plate. The optical densities were determined at λ400 nm for using microplate reader. Concentrations of the test compound in the samples were then determined by using the above shown calibration data. Each concentration of the test compound was measured in triplicates.
structure (smiles),measurement,setting,value
CC(C)(C)c1ccc(C(=O)NN=Cc2c(O)ccc3ccccc23)cc1.C[O-].[Cl-].[Cl-].[Fe+3] [Fe(III)-BBNH],Solubility of Fe(III)BBNH dissolved in the sample,Acetonitrile 100%,163.6 µg/mL
same,Solubility of Fe(III)BBNH dissolved in the sample,Acetonitrile: 10% H2O,491.4 µg/mL
same,Solubility of Fe(III)BBNH dissolved in the sample,Acetonitrile: 20% H2O,293.9 µg/mL
same,Solubility of Fe(III)BBNH dissolved in the sample,DMFA 100%,1000.2 µg/mL
same,Solubility of Fe(III)BBNH dissolved in the sample,DMSO 100%,1001.4 µg/mL
same,Solubility of Fe(III)BBNH dissolved in the sample,Methanol 100%,505.6 µg/mL
same,Solubility of Fe(III)BBNH dissolved in the sample,Methanol: 10% H2O,206.7 µg/mL
same,Solubility of Fe(III)BBNH dissolved in the sample,Water 100%,< 0.001 µg/mL
